Measured values from article PMC8286840, “Identifying SARS-CoV-2 antiviral compounds by screening for small molecule inhibitors of Nsp3 papain-like protease” (Biochemical Journal, 2021).
Where a name gives a salt, the structure may show the parent alone. Read-outs that look alike come from different tables or passages of the source. Where a SMILES comes first, the peptide text is derived from it. [ ]: non-standard residue; d: D form. Dolaproine = CO[C@@H]([C@@H]1CCCN1)[C@@H](C)C(=O)O; Dil = CC[C@H](C)[C@H](NC)[C@@H](CC(=O)O)OC; NMeV = CN[C@H](C(=O)O)C(C)C

Key:
[1] = target: T1, SARS-CoV-2 PLpro (nsp3 1564–1878) (Severe acute respiratory syndrome coronavirus 2, UniProt P0DTD1); experiment: biochemical; parameters: FRET-quenched peptide (Pro3) cleavage by PLpro, 10 min pre-incubation, slope over 20 min, normalised to no-compound control; conditions: low concentration screen, read-out: % of control remaining
[2] = target: T1, SARS-CoV-2 PLpro (nsp3 1564–1878); experiment: biochemical; parameters: FRET-quenched peptide (Pro3) cleavage by PLpro, 10 min pre-incubation, slope over 20 min, normalised to no-compound control; conditions: high concentration screen, read-out: % of control remaining

CC1=CC(=O)c2ccccc2C1=O [Menadione]
remaining activity at 1.25 µM ([1]; Well no.=3372): 98.5%
remaining activity at 1.25 µM ([1]; Well no.=6251): 99.2%
remaining activity at 3.75 µM ([2]; Well no.=3372): 96.5%
remaining activity at 3.75 µM ([2]; Well no.=6251): 101%

CCCCCC(O)CCCC(=O)O (stereo not drawn) [5-hydroxydecanoic acid sodium]
remaining activity at 1.25 µM ([1]; Well no.=714): 88.7%
remaining activity at 3.75 µM ([2]; Well no.=714): 85.9%

CC[C@H](C)[C@@H]([C@@H](CC(=O)N1CCC[C@H]1[C@H](OC)[C@@H](C)C(=O)N[C@@H](Cc1ccccc1)C(=O)OC)OC)N(C)C(=O)[C@@H](NC(=O)[C@@H](NC)C(C)C)C(C)C [MMAF-OMe] (H-[NMeV]V[Dil][Dolaproine]F-OMe)
remaining activity at 1.25 µM ([1]; Well no.=7600): 101%
remaining activity at 3.75 µM ([2]; Well no.=7600): 97.1%

O=C(O)c1cc(=O)c2c(OCC(O)COc3cccc4oc(C(=O)O)cc(=O)c34)cccc2o1 [Disodium Cromoglycate]
remaining activity at 1.25 µM ([1]; Well no.=1857): 102%
remaining activity at 3.75 µM ([2]; Well no.=1857): 100%

COc1cc2ncnc(Nc3cccc(Cl)c3)c2cc1OC [AG 1478]
remaining activity at 1.25 µM ([1]; Well no.=2643): 97.4%
remaining activity at 3.75 µM ([2]; Well no.=2643): 99.8%

CN1[C@@H]2CC[C@H]1C[C@@H](OC(=O)c1cc(Cl)cc(Cl)c1)C2 [3-Tropanyl-3,5-dichlorobenzoate]
remaining activity at 1.25 µM ([1]; Well no.=1278): 110%
remaining activity at 3.75 µM ([2]; Well no.=1278): 108%

C[C@@H](O)[C@@H]1NC(=O)[C@H](CCCCN)NC(=O)[C@@H](Cc2c[nH]c3ccccc23)NC(=O)[C@H](Cc2ccccc2)NC(=O)[C@@H](NC(=O)[C@H](N)Cc2ccccc2)CSSC[C@@H](C(=O)N[C@H](CO)[C@@H](C)O)NC1=O [Octreotide (acetate)]
remaining activity at 1.25 µM ([1]; Well no.=6556): 92.6%
remaining activity at 1.25 µM ([1]; Well no.=7396): 97.5%
remaining activity at 3.75 µM ([2]; Well no.=6556): 94.1%
remaining activity at 3.75 µM ([2]; Well no.=7396): 93.2%

c1ccc(-c2nn3c(c2-c2ccnc4cc(OCCN5CCOCC5)ccc24)CCC3)nc1 [LY2109761]
remaining activity at 1.25 µM ([1]; Well no.=4685): 103%
remaining activity at 3.75 µM ([2]; Well no.=4685): 103%

CCCCCCCCCCCCCCC(F)C(=O)O (stereo not drawn) [2-Fluoropalmitic acid]
remaining activity at 1.25 µM ([1]; Well no.=4355): 99.2%
remaining activity at 3.75 µM ([2]; Well no.=4355): 97%

CCCc1cc(=O)[nH]c(=S)[nH]1 [Propylthiouracil]
remaining activity at 1.25 µM ([1]; Well no.=4670): 98.7%
remaining activity at 3.75 µM ([2]; Well no.=4670): 94.9%

Cc1nc(-c2ccccc2)c(-c2ccncc2)o1 [SC-68376]
remaining activity at 1.25 µM ([1]; Well no.=2650): 96.3%
remaining activity at 3.75 µM ([2]; Well no.=2650): 102%

CN1c2ccccc2C(=O)N2CCc3c([nH]c4ccccc34)C21 (stereo in doubt) [Evodiamine]
remaining activity at 1.25 µM ([1]; Well no.=3809): 95.1%
remaining activity at 3.75 µM ([2]; Well no.=3809): 98.5%

O=C(c1ccccc1)c1ccc(N2CCOCC2)cc1O [DNA-PK Inhibitor V]
remaining activity at 1.25 µM ([1]; Well no.=2657): 95.5%
remaining activity at 3.75 µM ([2]; Well no.=2657): 101%

OC[C@H]1O[C@@H](n2cnc3c(NC4CCCC4)nc(Cl)nc32)[C@H](O)[C@@H]1O [2-Chloro-N6-cyclopentyladenosine]
remaining activity at 1.25 µM ([1]; Well no.=439): 98.2%
remaining activity at 3.75 µM ([2]; Well no.=439): 102%

CC(=O)N1N=C(c2ccc(N)cc2)c2cc3c(cc2C[C@H]1C)OCO3 [Talampanel]
remaining activity at 1.25 µM ([1]; Well no.=5791): 97.9%
remaining activity at 1.25 µM ([1]; Well no.=6496): 96.3%
remaining activity at 3.75 µM ([2]; Well no.=5791): 97.1%
remaining activity at 3.75 µM ([2]; Well no.=6496): 99.6%

O=C(O)CO [Glycolic acid]
remaining activity at 1.25 µM ([1]; Well no.=6981): 97.8%
remaining activity at 3.75 µM ([2]; Well no.=6981): 98.4%

O=C1CC[C@@H](C(=O)O)N1 [L-Pyroglutamic acid]
remaining activity at 1.25 µM ([1]; Well no.=6783): 102%
remaining activity at 3.75 µM ([2]; Well no.=6783): 104%

CCCCC[C@@H](/C=C/C=C\CCCCCCCC(=O)O)OO [13(S)-HPODE]
remaining activity at 1.25 µM ([1]; Well no.=4388): 102%
remaining activity at 3.75 µM ([2]; Well no.=4388): 101%

COc1cc2c(cc1OC)[C@H]1[C@@H](C)c3ccc(OC)c(OC)c3CN1CC2 [Corydaline]
remaining activity at 1.25 µM ([1]; Well no.=3252): 101%
remaining activity at 3.75 µM ([2]; Well no.=3252): 102%

C[N+](C)(C)CCOP(=O)(O)OP(=O)([O-])OC[C@H]1O[C@@H](n2ccc(N)nc2=O)[C@H](O)[C@@H]1O [Citicoline sodium salt]
remaining activity at 1.25 µM ([1]; Well no.=7726): 104%
remaining activity at 3.75 µM ([2]; Well no.=7726): 110%

Nc1cc(-c2ccncc2)c[nH]c1=O [amrinone]
remaining activity at 1.25 µM ([1]; Well no.=2146): 102%
remaining activity at 3.75 µM ([2]; Well no.=2146): 100%

Cn1cc(-c2ccncc2)c(-c2ccc(OCc3ccc4ccccc4n3)cc2)n1 [PF-2545920]
remaining activity at 1.25 µM ([1]; Well no.=8150): 101%
remaining activity at 3.75 µM ([2]; Well no.=8150): 95.7%

CC1=C(/C=C/C(C)=C/C=C/C(C)=C/C(=O)O)C(C)(C)CCC1 [Retinoic acid]
remaining activity at 1.25 µM ([1]; Well no.=1252): 98%
remaining activity at 1.25 µM ([1]; Well no.=1628): 95.7%
remaining activity at 1.25 µM ([1]; Well no.=3132): 102%
remaining activity at 1.25 µM ([1]; Well no.=4426): 101%
remaining activity at 1.25 µM ([1]; Well no.=6163): 106%
remaining activity at 3.75 µM ([2]; Well no.=1252): 98.8%
remaining activity at 3.75 µM ([2]; Well no.=1628): 99.6%
remaining activity at 3.75 µM ([2]; Well no.=3132): 104%
remaining activity at 3.75 µM ([2]; Well no.=4426): 101%
remaining activity at 3.75 µM ([2]; Well no.=6163): 108%

CNCCNS(=O)(=O)c1cccc2cnccc12 [H-8 dihydrochloride]
remaining activity at 1.25 µM ([1]; Well no.=893): 103%
remaining activity at 3.75 µM ([2]; Well no.=893): 99.3%

CC(=O)[C@H]1CC[C@H]2[C@@H]3CC=C4C[C@@H](OS(=O)(=O)O)CC[C@]4(C)[C@H]3CC[C@]12C [Pregnenolone sulfate sodium]
remaining activity at 1.25 µM ([1]; Well no.=1169): 101%
remaining activity at 3.75 µM ([2]; Well no.=1169): 102%

CC(CN(C)C)CN1c2ccccc2CCc2ccccc21 (stereo not drawn) [Trimipramine (maleate)]
remaining activity at 1.25 µM ([1]; Well no.=6715): 106%
remaining activity at 3.75 µM ([2]; Well no.=6715): 100%

COc1ccc2c(c[n+](C)c3c4cc5c(cc4ccc23)OCO5)c1OC [Chelerythrine chloride]
remaining activity at 1.25 µM ([1]; Well no.=28): 92.2%
remaining activity at 1.25 µM ([1]; Well no.=2359): 103%
remaining activity at 3.75 µM ([2]; Well no.=28): 92.4%
remaining activity at 3.75 µM ([2]; Well no.=2359): 105%

CC(=O)c1ccc(S(=O)(=O)NC(=O)NC2CCCCC2)cc1 [Acetohexamide]
remaining activity at 1.25 µM ([1]; Well no.=18): 93.4%
remaining activity at 3.75 µM ([2]; Well no.=18): 98.9%

Cc1[nH]c2ccccc2c1CCNC(=O)c1ccccc1F [CK-666]
remaining activity at 1.25 µM ([1]; Well no.=5720): 95.1%
remaining activity at 3.75 µM ([2]; Well no.=5720): 95.4%

CCCCCCCCCCCCCCC[C@@H](O)[C@@H](N)CO [Dihydrosphingosine]
remaining activity at 1.25 µM ([1]; Well no.=4399): 101%
remaining activity at 3.75 µM ([2]; Well no.=4399): 96.6%

CN(C)CCCOc1nn(Cc2ccccc2)c2ccccc12 [Benzydamine]
remaining activity at 1.25 µM ([1]; Well no.=2302): 95.4%
remaining activity at 3.75 µM ([2]; Well no.=2302): 96.1%
